Source: US8629100B2, “Method of inhibiting clostridium difficile by administration of oritavancin” (The Medicines Company, priority 2007, dated 2014)
Converted amounts (≈) assume the structure as drawn. “Also recorded” adds a separate entry of the source.

Columns and labels:
[1] = tested on: C. difficile PCR ribotype 027 spores; experiment: Phase-contrast microscopy of spore germination/outgrowth; format: cell-based; settings: 10 mg/L for 2 h, washed 3x in PBS
Protocol: C. difficile spores were also exposed to 10 mg/L antimicrobial for 2 h, washed 3× in sterile PBS, re-suspended and inoculated into Brazier's broth medium (pH 7). Samples were removed at 2, 4, 6, 24, 32 and 48 h. Slides were viewed under phase-contrast microscopy and percentages of phase-bright spores, phase-dark spores and vegetative cells were recorded (FIG. 4).
Statistical analyses were performed by transforming percentage data using an Arcsin Transformation and analysed using a Wilcoxon signed rank test. P<0.05 was considered statistically significant. Supra-MIC concentrations of all antimicrobials prevented outgrowth but not germination of C. difficile spores.

[2] = tested on: genotypically distinct C. difficile (n = 33); experiment: Broth macrodilution MIC; format: cell-based; settings: for MIC range / MIC90 / MIC: BM, broth macrodilution; for MIC90 / MIC: Clostridioides difficile; for MIC: read-out: GEO MIC
[3] = tested on: C. difficile spores (PCR ribotypes 001, 106 and 027); experiment: Viability (recovery) of spores after antibiotic exposure, cellulose acetate filtration (Examples 3A, 3B); format: cell-based
Protocol: The experiments were in general performed by mixing C. difficile spores with an antibiotic, filtering the solution through cellulose acetate filters to collect the spores, applying the spore-containing filters to nutrient agar, and determining the number of spores remaining on the filters after a selected period of time.
Therefore, the initial experiment included dilution of antimicrobial-containing spore suspensions prior to filtration and washing. Reaction volumes were 1 mL for all antimicrobial/control solutions.
1 mL of control (de-ionised water+/−Tween-80) and test (antimicrobial containing) solutions were inoculated with 10 μL C. difficile spores (3 strains; PCR ribotypes 001, 106 and 027). Spore suspensions (time=1 min or 30 min) were transferred to filtration cupules and the appropriate volume of diluent (sterile de-ionised water+/−Tween-80) was added to achieve the dilution factors noted above. Samples were filtered onto cellulose acetate filters and washed with a further 50 mL of the appropriate diluent. Filters were transferred aseptically to Braziers CCEY agar containing 5 mg/L lysozyme and 2% lysed horse blood. This procedure was completed in duplicate. The culture media were incubated in an anaerobic atmosphere at 37° C. for 48 h and the numbers of C. difficile colonies were recorded.
Diluent was first added to filtration cupules. 1 mL reactions were then added to the appropriate diluent (1 min and 30 min after reaction formation) and filtered onto cellulose acetate filters. The filters were washed with 50 mL of the appropriate diluent. The filters were then transferred aseptically to Braziers CCEY agar containing 5 mg/L lysozyme and 2% lysed horse blood. This procedure was completed in duplicate. Culture media were incubated in an anaerobic atmosphere at 37° C. for 48 h and the numbers of C. difficile colonies recorded

[4] = tested on: C. difficile PCR ribotype 001 (vegetative, spores); experiment: Growth on antibiotic-exposed cellulose acetate filters (Example 3C); format: cell-based; settings: for Growth of vegetative C. difficile on filters through which antibiotic had been filtered: PCR ribotype 001 overnight culture, anaerobic incubation; for Growth of C. difficile spores on filters through which antibiotic had been filtered: PCR ribotype 001 spores
Protocol: One mL solutions (containing no C. difficile spores) were processed as in Experiment 2B and filters placed onto Braziers CCEY agar. Onto the filters were inoculated 2×20 μL of:
a) Vegetative C. difficile (an overnight culture of PCR ribotype 001)
b) C. difficile spores (PCR ribotype 001), or
Growth/no growth was recorded following anaerobic incubation.

[5] = tested on: C. difficile PCR ribotype 027; experiment: In vitro triple-stage chemostat human gut model of clindamycin-induced CDI; settings: for Decline of cytotoxin titres during instillation: 7 days; for Recrudescence of C. difficile spore germination, proliferation and cytotoxin production: after concentrations declined below limits of detection
Excerpt: A single isolate of C. difficile PCR ribotype 027 was investigated. This isolate was a clinical strain recovered during an epidemic of CDI at the Maine Medical Centre (Portland, USA) in 2005. It was supplied courtesy of Dr. Rob Owens and ribotyped at the Anaerobe Reference Laboratory (Cardiff, Wales, UK) by Dr Jon Brazier.
The gut model was designed to allow the study of the intestinal microflora in the low pH, carbohydrate-excess conditions of the proximal colon and the carbohydrate-depleted, non-acidic conditions of the distal colon (Macfarlane et al., Microb Ecol 1998; 35: 180-7). Microbiological and physicochemical measurements within the gut model vessels were validated against the intestinal contents of sudden death victims (Macfarlane et al., Microb Ecol 1998; 35: 180-7). Each gut model consists of three fermentation vessels connected in a weir cascade system top-fed with growth medium at a controlled rate (D=0.015 h^−1). Vessels were sparged with oxygen-free nitrogen to ensure anaerobiosis, heated via a water-jacketed system (37° C.) and maintained at specific pH using fermenter controller units (Biosolo 3, Brighton Systems, UK) delivering 0.5 M HCl/NaOH. Vessel 1 (280 mL) was operated at pH 5.5 and high substrate availability, thus reflecting the conditions within the proximal colon, while vessels 2 and 3 (300 mL) were operated at pH 6.2 and 6.8, respectively, with low substrate availability, thus reflecting the conditions within the distal colon. The gut model was primed with faecal slurry ˜10% (w/v) and allowed to equilibrate with respect to bacterial populations for 14 days.
Faecal samples were collected from five healthy elderly (>65 years) volunteers and immediately transported to the laboratory under anaerobic conditions (GasPak, Oxoid, Basingstoke, UK). […] C. difficile-negative faeces were pooled and a coarse-filtered slurry (˜10% w/v) in sterile pre-reduced phosphate-buffered saline was prepared. Vessels of the gut models were filled to approximately two-thirds volume, and the growth medium pumps were started.
Major culturable components of the indigenous gut microflora and C. difficile were enumerated by viable counting (log10 cfu/mL) on selective and non-selective agars as reported previously (Freeman et al., J Antimicrob Chemother 2005; 56: 717-25). Bacterial groups enumerated were: total facultative anaerobes, facultatively anaerobic lactose fermenters, total anaerobes, bifidobacteria, Bacteroides fragilis group, total clostridia, lactobacilli, enterococci, total C. difficile and C. difficile spores. C. difficile cytotoxin production was quantified using a Vero cell cytotoxicity assay as described previously (Freeman et al., J Antimicrob Chemother 2003; 52: 96-102). Cytotoxin titres were expressed in log10 relative units (RU). Only C. difficile total bacterial counts, spore counts and cytotoxin titres were enumerated in vessel 1 of the gut model.
The use of the gut model to evaluate therapeutic interventions for CDI has been described previously (Freeman et al., J Antimicrob Chemother 2007; 60: 83-91; Freeman et al., J Antimicrob Chemother 2005; 56: 717-25). Briefly, following inoculation of each gut model with the faecal slurry, no further interventions were made for 13 days (period A). During period A, bacterial populations were enumerated every 2 days. Next (day 14), vessel 1 of each gut model was inoculated with a single inoculum of ˜10^7 cfu C. difficile PCR ribotype 027 spores (Freeman et al., J Antimicrob Chemother 2003; 52: 96-102), with no further interventions for 7 days (period B). From this point onwards, bacterial populations were enumerated daily.

[6] = tested on: C. difficile (CD) ATCC 43255; experiment: Hamster model of CDI, oral administration; format: in vivo, Syrian golden hamsters; settings: for Toxins A and B in caecal contents: ORI 100 mg/kg (PEG400) on Day 20 PI, VA 50 mg/kg once daily
[7] = Example 3A: diluent added after reaction solutions, 1 min and 30 min exposure
[8] = Example 3B: diluent added to cupules before reaction solutions, 1 min and 30 min
[9] = day 2 of instillation (64 mg/L two times daily), vessel 3

CN[C@H](CC(C)C)C(=O)N[C@H]1C(=O)N[C@@H](CC(N)=O)C(=O)N[C@H]2C(=O)N[C@H]3C(=O)N[C@H](C(=O)N[C@H](C(=O)O)c4cc(O)cc(O)c4-c4cc3ccc4O)[C@H](O)c3ccc(c(Cl)c3)Oc3cc2cc(c3O[C@@H]2O[C@H](CO)[C@@H](O)[C@H](O)[C@H]2O[C@H]2C[C@](C)(N)[C@H](O)[C@H](C)O2)Oc2ccc(cc2Cl)[C@H]1O [vancomycin]
Outgrowth of C. difficile spores prior-exposed to antimicrobial [1]: not observed
MIC range [2]: 0.5 to 2 µg/mL
MIC90 [2]: 2 µg/mL (≈ 1.38 µM)
MIC [2]: 1.58 µg/mL (≈ 1.09 µM)
Recovery of C. difficile spores [3, 7]: 25-60 % of controls
Recovery of C. difficile spores [3, 8]: 70-80 % of controls
Growth of vegetative C. difficile on filters through which antibiotic had been filtered [4]: grew
Growth of C. difficile spores on filters through which antibiotic had been filtered [4]: good growth
Time C. difficile remained as spores before recurrent germination, proliferation and cytotoxin production ([5]; after cessation of instillation, vessel 2): 12 days
Time C. difficile remained as spores before recurrent germination, proliferation and cytotoxin production ([5]; after cessation of instillation, vessel 3): 13 days
Effect on C. difficile spore counts ([5]; during instillation, period E): unaffected
Decline of cytotoxin titres during instillation ([5]; period E): 3 RU
C. difficile total counts by the end of the experiment ([5]; period F): ~6 login cfu/mL
Cytotoxin titres by the end of the experiment ([5]; period F): 5 RU
Recrudescence of C. difficile spore germination, proliferation and cytotoxin production ([5]; period F): Recrudescence
Toxins A and B in caecal contents [6]: High level

CN[C@H](CC(C)C)C(=O)N[C@H]1C(=O)N[C@@H](CC(N)=O)C(=O)N[C@H]2C(=O)N[C@H]3C(=O)N[C@H](C(=O)N[C@H](C(=O)O)c4cc(O)cc(O)c4-c4cc3ccc4O)[C@H](O[C@H]3C[C@](C)(N)[C@@H](O)[C@H](C)O3)c3ccc(c(Cl)c3)Oc3cc2cc(c3O[C@@H]2O[C@H](CO)[C@@H](O)[C@H](O)[C@H]2O[C@H]2C[C@](C)(NCc3ccc(-c4ccc(Cl)cc4)cc3)[C@@H](O)[C@H](C)O2)Oc2ccc(cc2Cl)[C@H]1O [oritavancin, N-(4-(4-chlorophenyl)benzyl)A82846B]
Outgrowth of C. difficile spores prior-exposed to antimicrobial [1]: much lower than control; also recorded: significantly inhibited
Broth macrodilution MICs lower than agar incorporation MICs [2]: 2- to 4 fold
Broth macrodilution geometric mean MICs lower than those for metronidazole [2]: ~2 fold
Broth macrodilution geometric mean MICs lower than those for vancomycin [2]: ~5 fold
Tested isolates more susceptible (≧2 doubling dilutions) than to vancomycin [2]: 76%
MIC range [2]: 0.06 to 1 µg/mL
MIC90 [2]: 1 µg/mL (≈ 0.558 µM)
MIC [2]: 0.31 µg/mL (≈ 0.173 µM)
Recovery of C. difficile spores [3, 7]: 0 % of controls
Recovery of C. difficile spores [3, 8]: 0 % of controls
Growth of vegetative C. difficile on filters through which antibiotic had been filtered [4]: Greatly reduced numbers
Growth of C. difficile spores on filters through which antibiotic had been filtered [4]: unrecoverable
Vegetative C. difficile recovered on exposed filters ([4]; on one plate): 1 cfu
Longer time for cytotoxin titres to decline to undetectable levels than in vancomycin experiment [5]: 5 days
C. difficile total counts and spore counts ([5]; 1 day later (day 3 of instillation) and rest of period E, LOD ~1.22 log10 cfu/mL): below the limits of detection
Time to cytotoxin titres below the limits of detection ([5]; after cessation of instillation, period F): ≤ 10 days
Decline of C. difficile spore counts [5, 9]: ~2 log10 cfu/mL
Decline of C. difficile total counts [5, 9]: ~2 log10 cfu/mL
Decline of cytotoxin titres during instillation ([5]; period E): 3 RU
Recrudescence of C. difficile spore germination, proliferation and cytotoxin production ([5]; period F): No recrudescence
C. difficile isolation after cessation of instillation ([5]; period F, remainder of the experiment): isolated sporadically at the limits of detection
Survival up to 20 days PI ([6]; 100 mg/kg once daily oral from Day 2 for 5 days, formulated in PEG400): All the animals treated with ORI survived
CD vegetative and spore cells in caecal content ([6]; 20 days PI, formulated in PEG400, LOD 1.47 (TC) and 1.77 (spores) Log 10 CFU/g): undetectable
Toxins A and B in caecal contents [6]: undetectable
